Common to all, as to assay: biochemical
What all share (set-up): species or system human cell line lysate

Experiment [1] deals with BMP-2-inducible protein kinase ; BMP2K ; Q9NSY1 (Homo sapiens, UniProt Q9NSY1).
Experiment [2] deals with Calcium/calmodulin-dependent protein kinase type II subunit beta ; CAMK2B ; Q13554 (Homo sapiens, UniProt Q13554).
The target of experiment [3] is Casein kinase I isoform delta ; CSNK1D ; P48730 (Homo sapiens, UniProt P48730).
Experiment [4] addresses EKC/KEOPS complex subunit TP53RK ; TP53RK ; Q96S44 (Homo sapiens, UniProt Q96S44).
Experiment [5] addresses Ephrin type-A receptor 4 ; EPHA4 ; P54764 (Homo sapiens, UniProt P54764).
Experiment [6] concerns the target Fructosamine-3-kinase ; FN3K ; Q9H479 (Homo sapiens, UniProt Q9H479).
The target in experiment [7] is Isoform 2 of Casein kinase I isoform delta ; CSNK1D ; P48730-2 (Homo sapiens, UniProt P48730).
Experiment [8] deals with Isoform 2 of Focal adhesion kinase 1 ; PTK2 ; Q05397-2 (Homo sapiens, UniProt Q05397).
In experiment [9] the target is Isoform 2 of Tyrosine-protein kinase Fyn ; FYN ; P06241-2 (Homo sapiens, UniProt P06241).
Chain of Isoform 2 of Tyrosine-protein kinase Fyn ; FYN ; P06241-2 (P06241 whole entry, the tested form may be a part, canonical isoform): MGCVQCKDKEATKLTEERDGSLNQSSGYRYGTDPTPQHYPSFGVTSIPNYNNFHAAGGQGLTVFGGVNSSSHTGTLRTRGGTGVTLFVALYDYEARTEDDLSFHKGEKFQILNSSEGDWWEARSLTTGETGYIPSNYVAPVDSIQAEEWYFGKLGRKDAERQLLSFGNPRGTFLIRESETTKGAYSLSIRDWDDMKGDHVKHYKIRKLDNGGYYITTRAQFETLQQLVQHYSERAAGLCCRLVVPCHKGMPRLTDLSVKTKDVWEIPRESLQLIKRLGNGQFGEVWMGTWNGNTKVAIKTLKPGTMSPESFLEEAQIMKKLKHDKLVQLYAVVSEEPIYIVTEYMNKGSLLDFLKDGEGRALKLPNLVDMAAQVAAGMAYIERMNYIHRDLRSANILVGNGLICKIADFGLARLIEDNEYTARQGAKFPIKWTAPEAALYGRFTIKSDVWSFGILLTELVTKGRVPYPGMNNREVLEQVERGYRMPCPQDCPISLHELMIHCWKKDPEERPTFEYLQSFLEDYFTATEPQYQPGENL
The target in experiment [10] is Isoform 4 of LIM domain kinase 1 ; LIMK1 ; P53667-4 (Homo sapiens, UniProt P53667).
The target of experiment [11] is Isoform Beta-II of Protein kinase C beta type ; PRKCB ; P05771-2 (Homo sapiens, UniProt P05771).
Chain of Isoform Beta-II of Protein kinase C beta type ; PRKCB ; P05771-2 (P05771 whole entry, canonical isoform): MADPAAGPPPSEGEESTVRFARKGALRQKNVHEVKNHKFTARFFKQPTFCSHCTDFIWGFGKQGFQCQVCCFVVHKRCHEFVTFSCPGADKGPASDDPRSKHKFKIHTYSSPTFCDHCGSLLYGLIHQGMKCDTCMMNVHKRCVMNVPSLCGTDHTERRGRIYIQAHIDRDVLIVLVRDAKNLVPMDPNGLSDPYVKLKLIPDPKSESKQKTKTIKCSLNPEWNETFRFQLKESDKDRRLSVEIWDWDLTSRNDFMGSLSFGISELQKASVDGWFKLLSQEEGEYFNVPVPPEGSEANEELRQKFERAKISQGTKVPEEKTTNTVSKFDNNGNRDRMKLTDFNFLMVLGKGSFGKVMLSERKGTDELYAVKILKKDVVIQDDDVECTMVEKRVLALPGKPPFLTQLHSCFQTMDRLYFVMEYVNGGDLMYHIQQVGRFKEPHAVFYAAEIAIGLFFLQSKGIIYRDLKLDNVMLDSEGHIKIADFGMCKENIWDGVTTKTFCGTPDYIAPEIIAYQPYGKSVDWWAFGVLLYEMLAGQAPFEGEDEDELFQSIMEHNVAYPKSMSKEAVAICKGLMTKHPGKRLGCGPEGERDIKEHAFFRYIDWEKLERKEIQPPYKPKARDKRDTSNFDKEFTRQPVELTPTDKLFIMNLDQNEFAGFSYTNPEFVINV
Experiment [12] has as its target Mitogen-activated protein kinase 11 ; MAPK11 ; Q15759 (Homo sapiens, UniProt Q15759).
For experiment [13], the target named is Mitogen-activated protein kinase 9 ; MAPK9 ; P45984 (Homo sapiens, UniProt P45984).
Experiment [14] has as its target Mitogen-activated protein kinase kinase kinase 12 ; MAP3K12 ; Q12852 (Homo sapiens, UniProt Q12852).
Experiment [15] deals with Mitogen-activated protein kinase kinase kinase kinase 5 ; MAP4K5 ; Q9Y4K4 (Homo sapiens, UniProt Q9Y4K4).
Chain of Mitogen-activated protein kinase kinase kinase kinase 5 ; MAP4K5 ; Q9Y4K4 (Q9Y4K4 whole entry): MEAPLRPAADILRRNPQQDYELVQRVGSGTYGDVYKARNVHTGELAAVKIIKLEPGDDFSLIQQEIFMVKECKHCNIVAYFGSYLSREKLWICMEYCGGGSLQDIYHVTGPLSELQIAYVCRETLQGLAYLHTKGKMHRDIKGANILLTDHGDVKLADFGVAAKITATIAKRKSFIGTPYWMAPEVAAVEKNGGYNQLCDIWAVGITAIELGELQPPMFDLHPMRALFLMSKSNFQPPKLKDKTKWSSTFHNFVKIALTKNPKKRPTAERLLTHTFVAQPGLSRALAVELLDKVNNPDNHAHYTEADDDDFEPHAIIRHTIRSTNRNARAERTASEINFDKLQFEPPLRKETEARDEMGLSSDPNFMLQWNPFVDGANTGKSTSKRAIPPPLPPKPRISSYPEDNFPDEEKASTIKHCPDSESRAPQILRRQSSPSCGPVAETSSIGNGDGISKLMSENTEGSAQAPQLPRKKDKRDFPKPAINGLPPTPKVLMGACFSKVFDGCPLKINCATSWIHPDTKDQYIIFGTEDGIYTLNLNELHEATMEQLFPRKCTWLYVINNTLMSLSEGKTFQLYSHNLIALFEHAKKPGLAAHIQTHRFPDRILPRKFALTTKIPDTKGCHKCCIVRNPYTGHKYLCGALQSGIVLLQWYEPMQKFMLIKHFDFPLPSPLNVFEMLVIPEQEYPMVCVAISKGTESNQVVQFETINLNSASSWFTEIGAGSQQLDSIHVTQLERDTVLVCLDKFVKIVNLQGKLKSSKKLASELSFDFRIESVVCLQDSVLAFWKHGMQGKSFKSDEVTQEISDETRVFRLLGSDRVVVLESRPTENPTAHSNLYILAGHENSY
In experiment [16] the target is Protein-tyrosine kinase 2-beta ; PTK2B ; Q14289 (Homo sapiens, UniProt Q14289).
Experiment [17] concerns the target RAC-gamma serine/threonine-protein kinase ; AKT3 ; Q9Y243 (Homo sapiens, UniProt Q9Y243).
In experiment [18] the target is Serine/threonine-protein kinase 10 ; STK10 ; O94804 (Homo sapiens, UniProt O94804).
Experiment [19] deals with Serine/threonine-protein kinase BRSK2 ; BRSK2 ; Q8IWQ3 (Homo sapiens, UniProt Q8IWQ3).
Experiment [20] has as its target Serine/threonine-protein kinase Nek9 ; NEK9 ; Q8TD19 (Homo sapiens, UniProt Q8TD19).
The target of experiment [21] is Serine/threonine-protein kinase PDIK1L ; PDIK1L ; Q8N165 (Homo sapiens, UniProt Q8N165).
The target of experiment [22] is Serine/threonine-protein kinase haspin ; HASPIN ; Q8TF76 (Homo sapiens, UniProt Q8TF76).
The target of experiment [23] is Tyrosine-protein kinase Fer ; FER ; P16591 (Homo sapiens, UniProt P16591).
Where [24] appears, read: read-out: BAY-1143572 (10 µM) / %Intensity relative to DMSO.
[25] abbreviates: read-out: BAY-1251152 (10 µM) / %Intensity relative to DMSO.

Where two headings read alike, the source gives them in different places.

Chain of Mitogen-activated protein kinase 11 ; MAPK11 ; Q15759 (Q15759 whole entry): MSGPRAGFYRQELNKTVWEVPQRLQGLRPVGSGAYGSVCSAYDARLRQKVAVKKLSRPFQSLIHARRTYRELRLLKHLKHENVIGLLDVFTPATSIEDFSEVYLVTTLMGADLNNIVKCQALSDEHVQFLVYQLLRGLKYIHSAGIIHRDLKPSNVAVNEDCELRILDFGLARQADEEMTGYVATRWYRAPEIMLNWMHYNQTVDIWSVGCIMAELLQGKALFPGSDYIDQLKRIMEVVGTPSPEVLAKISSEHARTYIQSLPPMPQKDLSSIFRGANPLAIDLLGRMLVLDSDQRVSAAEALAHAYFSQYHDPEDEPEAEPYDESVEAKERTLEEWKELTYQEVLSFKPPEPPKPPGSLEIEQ
Chain of Calcium/calmodulin-dependent protein kinase type II subunit beta ; CAMK2B ; Q13554 (Q13554 whole entry, canonical isoform, one chain of several): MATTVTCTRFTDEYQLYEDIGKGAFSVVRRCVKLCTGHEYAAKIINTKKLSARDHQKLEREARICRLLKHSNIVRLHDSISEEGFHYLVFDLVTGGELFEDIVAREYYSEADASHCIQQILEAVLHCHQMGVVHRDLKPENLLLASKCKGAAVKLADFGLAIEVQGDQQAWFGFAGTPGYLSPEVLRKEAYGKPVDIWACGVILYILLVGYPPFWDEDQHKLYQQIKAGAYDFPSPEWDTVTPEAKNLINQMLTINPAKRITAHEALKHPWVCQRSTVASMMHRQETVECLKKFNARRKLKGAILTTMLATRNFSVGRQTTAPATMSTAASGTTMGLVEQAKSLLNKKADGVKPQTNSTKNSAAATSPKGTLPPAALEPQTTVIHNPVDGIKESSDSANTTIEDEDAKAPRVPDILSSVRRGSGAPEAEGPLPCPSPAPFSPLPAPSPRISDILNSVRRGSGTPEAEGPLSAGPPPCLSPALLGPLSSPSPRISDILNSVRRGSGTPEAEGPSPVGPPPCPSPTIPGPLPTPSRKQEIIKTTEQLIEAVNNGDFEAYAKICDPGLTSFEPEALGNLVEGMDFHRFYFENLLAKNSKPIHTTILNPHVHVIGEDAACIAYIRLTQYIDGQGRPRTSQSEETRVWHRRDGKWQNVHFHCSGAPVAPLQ
Chain of Ephrin type-A receptor 4 ; EPHA4 ; P54764 (P54764 whole entry): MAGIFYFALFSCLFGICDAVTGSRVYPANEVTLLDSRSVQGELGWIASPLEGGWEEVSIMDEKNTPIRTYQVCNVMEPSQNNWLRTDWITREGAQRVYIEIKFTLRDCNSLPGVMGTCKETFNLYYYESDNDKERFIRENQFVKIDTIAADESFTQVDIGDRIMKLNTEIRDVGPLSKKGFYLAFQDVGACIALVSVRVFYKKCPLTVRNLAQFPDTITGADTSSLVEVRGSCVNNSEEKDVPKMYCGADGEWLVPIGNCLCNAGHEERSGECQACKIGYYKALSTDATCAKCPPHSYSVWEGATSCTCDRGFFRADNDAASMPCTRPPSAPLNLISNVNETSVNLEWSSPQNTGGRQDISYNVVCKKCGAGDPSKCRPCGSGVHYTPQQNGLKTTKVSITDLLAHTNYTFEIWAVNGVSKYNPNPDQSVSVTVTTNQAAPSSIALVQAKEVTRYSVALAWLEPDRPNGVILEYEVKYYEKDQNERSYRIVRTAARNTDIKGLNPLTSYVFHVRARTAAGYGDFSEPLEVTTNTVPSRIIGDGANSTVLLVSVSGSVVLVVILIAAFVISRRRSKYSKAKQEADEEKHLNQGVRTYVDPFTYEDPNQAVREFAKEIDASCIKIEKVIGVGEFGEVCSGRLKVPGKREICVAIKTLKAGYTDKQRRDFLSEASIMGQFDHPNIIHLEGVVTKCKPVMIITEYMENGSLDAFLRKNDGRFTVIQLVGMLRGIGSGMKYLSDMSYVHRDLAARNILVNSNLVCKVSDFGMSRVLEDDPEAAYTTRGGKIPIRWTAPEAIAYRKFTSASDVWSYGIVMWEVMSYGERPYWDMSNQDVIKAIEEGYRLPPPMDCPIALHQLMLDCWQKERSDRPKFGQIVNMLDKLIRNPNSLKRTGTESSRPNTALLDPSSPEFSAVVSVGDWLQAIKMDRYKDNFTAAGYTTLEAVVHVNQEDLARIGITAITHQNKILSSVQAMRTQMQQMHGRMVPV
Chain of Serine/threonine-protein kinase Nek9 ; NEK9 ; Q8TD19 (Q8TD19 whole entry, one chain of several): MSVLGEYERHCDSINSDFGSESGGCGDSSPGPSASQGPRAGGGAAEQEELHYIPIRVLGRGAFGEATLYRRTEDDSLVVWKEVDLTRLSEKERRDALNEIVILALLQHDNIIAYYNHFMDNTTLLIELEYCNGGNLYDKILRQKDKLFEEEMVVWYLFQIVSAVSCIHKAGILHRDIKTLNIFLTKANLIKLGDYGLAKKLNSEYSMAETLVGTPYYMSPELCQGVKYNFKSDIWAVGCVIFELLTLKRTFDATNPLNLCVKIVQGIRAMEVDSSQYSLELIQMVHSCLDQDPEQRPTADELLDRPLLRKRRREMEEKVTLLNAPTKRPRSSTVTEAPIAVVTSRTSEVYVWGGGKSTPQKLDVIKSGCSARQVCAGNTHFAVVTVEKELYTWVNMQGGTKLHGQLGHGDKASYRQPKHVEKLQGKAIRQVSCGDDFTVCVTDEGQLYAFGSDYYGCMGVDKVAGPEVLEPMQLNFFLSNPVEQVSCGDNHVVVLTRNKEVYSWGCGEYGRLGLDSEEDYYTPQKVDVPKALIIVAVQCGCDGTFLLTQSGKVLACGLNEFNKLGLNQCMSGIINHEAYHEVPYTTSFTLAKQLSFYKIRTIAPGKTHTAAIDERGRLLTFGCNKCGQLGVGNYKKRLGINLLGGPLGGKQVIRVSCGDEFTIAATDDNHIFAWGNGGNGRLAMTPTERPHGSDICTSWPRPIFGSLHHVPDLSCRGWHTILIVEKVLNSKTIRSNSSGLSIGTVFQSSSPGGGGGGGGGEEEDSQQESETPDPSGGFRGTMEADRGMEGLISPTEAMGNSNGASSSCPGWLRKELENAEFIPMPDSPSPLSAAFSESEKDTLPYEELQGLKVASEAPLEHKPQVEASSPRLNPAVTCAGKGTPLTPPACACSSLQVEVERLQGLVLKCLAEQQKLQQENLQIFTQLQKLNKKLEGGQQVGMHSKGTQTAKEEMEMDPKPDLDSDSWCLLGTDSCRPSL

For `COc1cc(F)ccc1-c1ncnc(Nc2cccc(C[S@](C)(=N)=O)c2)n1` [BAY-1143572], the remaining activity at 10 µM in experiment [1] (setting [24]) was 88.5%; in [2] (setting [24]), 105%; in experiment [3] (setting [24]), 121%; in [4] (setting [24]), 122%; in experiment [5] (setting [24]), 91.7%; in experiment [6] (setting [24]), 114%. The remaining activity at 10 µM in [7] (setting [24]) worked out at 108%; in [8] (setting [24]) it was 80.9%; in [9] (setting [24]), 106%; in experiment [10] (setting [24]), 79%; in [11] (setting [24]), 121%; in experiment [12] (setting [24]), 116%. The remaining activity at 10 µM in experiment [13] (setting [24]) amounted to 178%; in experiment [14] (setting [24]), 114%; in experiment [15] (setting [24]), 97.6%; in [16] (setting [24]), 217%; in experiment [17] (setting [24]), 125%; in experiment [18] (setting [24]), 91.3%. The remaining activity at 10 µM in experiment [19] (setting [24]) is 104%; in experiment [20] (setting [24]), 110%; in experiment [21] (setting [24]), 119%; in experiment [22] (setting [24]), 75.8%; in [23] (setting [24]), 112%.
Consider `COc1cc(F)ccc1-c1cc(Nc2cc(CS(C)(=N)=O)ccn2)ncc1F` (stereo not shown) [BAY-1251152], for which the remaining activity at 10 µM in experiment [1] (setting [25]) was 84.7%; in [2] (setting [25]) it was 98.2%; in [3] (setting [25]), 117%; in [4] (setting [25]), 118%; in experiment [5] (setting [25]) it was 105%; in experiment [6] (setting [25]) it was 106%. For the same compound, the remaining activity at 10 µM in experiment [7] (setting [25]) was 105%; in experiment [8] (setting [25]), 85%; in experiment [9] (setting [25]), 108%; in [10] (setting [25]), 106%; in [11] (setting [25]), 119%; in experiment [12] (setting [25]) it was 107%. Also, the remaining activity at 10 µM in [13] (setting [25]) worked out at 142%; in experiment [14] (setting [25]), 109%; in experiment [15] (setting [25]), 55.3%; in experiment [16] (setting [25]) it was 176%; in [17] (setting [25]), 127%; in experiment [18] (setting [25]), 74.5%. Also, the remaining activity at 10 µM in experiment [19] (setting [25]) was found to be 114%; in [20] (setting [25]) it was 110%; in experiment [21] (setting [25]), 129%; in [22] (setting [25]) it was 68.5%; in [23] (setting [25]), 103%.
